Assay results reported in the supplement of paper PMC10307832.

Tests used:
Experiment in all cases: relative viability (nuclei count vs DMSO), 5 days (fraction); higher = more cells survive
NCI-H2170 = tested on: NCI-H2170
How it was run: (§1)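 Lung cancer cell lines were seeded in 1536-well plates and dosed by pin tool the next day, with either a single drug or a fixed anchor-drug dose combined with five library-drug doses (not always all listed) spaced in √10 steps. Five days later, one step fixed the cells and stained their nuclei (final 0.05% Triton X-100, 1% formaldehyde, 1 ug/ml Hoechst), and nuclei were counted on 4× images. Relative viability is the nuclei count in treated wells divided by the count in vehicle wells, and each value is the median of duplicate plates.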

NCI-H2087 = tested on: NCI-H2087
How it was run: as §1

HCC-78 = tested on: HCC-78
How it was run: as §1

LOU-NH91 = tested on: LOU-NH91
How it was run: as §1

NCI-H460 = tested on: NCI-H460
How it was run: as §1

NCI-H1944 = tested on: NCI-H1944
How it was run: as §1

RERF-LC-KJ = tested on: RERF-LC-KJ
How it was run: as §1

NCI-H1651 = tested on: NCI-H1651
How it was run: as §1

NCI-H1395 = tested on: NCI-H1395
How it was run: as §1

CAL-12T = tested on: CAL-12T
How it was run: as §1

HCC-366 = tested on: HCC-366
How it was run: as §1

PC-3 [JPC-3] = tested on: PC-3 [JPC-3]
How it was run: as §1

ABC-1 = tested on: ABC-1
How it was run: as §1

NCI-H3122 = tested on: NCI-H3122
How it was run: as §1

LU99A = tested on: LU99A
How it was run: as §1

LC-2-ad = tested on: LC-2-ad
How it was run: as §1

NCI-H1755 = tested on: NCI-H1755
How it was run: as §1

ChaGo-K-1 = tested on: ChaGo-K-1
How it was run: as §1

NCI-H2405 = tested on: NCI-H2405
How it was run: as §1

NCI-H1793 = tested on: NCI-H1793
How it was run: as §1

COc1cc2nccc(Oc3ccc(NC(=O)Nc4cc(C)on4)c(Cl)c3)c2cc1OC [Tivozanib] + NC(=O)Nc1cc(-c2cccc(F)c2)sc1C(=O)N[C@H]1CCCNC1 [AZD7762] (partner 0.2 µM)
relative viability (NCI-H2170; first compound 0.005 µM): 0.689
relative viability (NCI-H2170; first compound 0.01581 µM): 0.785
relative viability (NCI-H2170; first compound 0.05 µM): 0.809
relative viability (NCI-H2170; first compound 0.5 µM): 0.856
relative viability (NCI-H2087; first compound 0.005 µM): 1.3
relative viability (NCI-H2087; first compound 0.01581 µM): 1.3
relative viability (NCI-H2087; first compound 0.05 µM): 1.28
relative viability (NCI-H2087; first compound 0.1581 µM): 1.55
relative viability (NCI-H2087; first compound 0.5 µM): 1.22
relative viability (HCC-78; first compound 0.005 µM): 0.551
relative viability (HCC-78; first compound 0.01581 µM): 0.677
relative viability (HCC-78; first compound 0.05 µM): 0.674
relative viability (HCC-78; first compound 0.1581 µM): 0.497
relative viability (HCC-78; first compound 0.5 µM): 0.657
relative viability (LOU-NH91; first compound 0.005 µM): 0.712
relative viability (LOU-NH91; first compound 0.01581 µM): 0.77
relative viability (LOU-NH91; first compound 0.05 µM): 0.753
relative viability (LOU-NH91; first compound 0.1581 µM): 0.734
relative viability (LOU-NH91; first compound 0.5 µM): 0.701
relative viability (NCI-H460; first compound 0.005 µM): 0.533
relative viability (NCI-H460; first compound 0.01581 µM): 0.689
relative viability (NCI-H460; first compound 0.05 µM): 0.651
relative viability (NCI-H460; first compound 0.1581 µM): 0.566
relative viability (NCI-H460; first compound 0.5 µM): 0.471
relative viability (NCI-H1944; first compound 0.005 µM): 0.392
relative viability (NCI-H1944; first compound 0.01581 µM): 0.552
relative viability (NCI-H1944; first compound 0.05 µM): 0.378
relative viability (NCI-H1944; first compound 0.1581 µM): 0.452
relative viability (NCI-H1944; first compound 0.5 µM): 0.487
relative viability (RERF-LC-KJ; first compound 0.005 µM): 0.701
relative viability (RERF-LC-KJ; first compound 0.01581 µM): 0.925
relative viability (RERF-LC-KJ; first compound 0.05 µM): 1.07
relative viability (RERF-LC-KJ; first compound 0.1581 µM): 0.659
relative viability (RERF-LC-KJ; first compound 0.5 µM): 0.892
relative viability (NCI-H1651; first compound 0.005 µM): 0.381
relative viability (NCI-H1651; first compound 0.01581 µM): 0.429
relative viability (NCI-H1651; first compound 0.05 µM): 0.551
relative viability (NCI-H1651; first compound 0.1581 µM): 0.301
relative viability (NCI-H1651; first compound 0.5 µM): 0.421
relative viability (NCI-H1395; first compound 0.005 µM): 0.359
relative viability (NCI-H1395; first compound 0.01581 µM): 0.389
relative viability (NCI-H1395; first compound 0.05 µM): 0.402
relative viability (NCI-H1395; first compound 0.1581 µM): 0.386
relative viability (NCI-H1395; first compound 0.5 µM): 0.35
relative viability (CAL-12T; first compound 0.005 µM): 0.483
relative viability (CAL-12T; first compound 0.01581 µM): 0.584
relative viability (CAL-12T; first compound 0.05 µM): 0.668
relative viability (CAL-12T; first compound 0.1581 µM): 0.722
relative viability (CAL-12T; first compound 0.5 µM): 0.71
relative viability (HCC-366; first compound 0.005 µM): 0.333
relative viability (HCC-366; first compound 0.01581 µM): 0.245
relative viability (HCC-366; first compound 0.05 µM): 0.35
relative viability (HCC-366; first compound 0.1581 µM): 0.362
relative viability (HCC-366; first compound 0.5 µM): 0.25
relative viability (PC-3 [JPC-3]; first compound 0.01581 µM): 0.857
relative viability (PC-3 [JPC-3]; first compound 0.05 µM): 0.927
relative viability (PC-3 [JPC-3]; first compound 0.1581 µM): 0.741
relative viability (PC-3 [JPC-3]; first compound 0.5 µM): 0.8
relative viability (ABC-1; first compound 0.005 µM): 1.05
relative viability (ABC-1; first compound 0.01581 µM): 0.865
relative viability (ABC-1; first compound 0.05 µM): 0.895
relative viability (ABC-1; first compound 0.1581 µM): 1.12
relative viability (ABC-1; first compound 0.5 µM): 0.785
relative viability (NCI-H3122; first compound 0.005 µM): 0.97
relative viability (NCI-H3122; first compound 0.01581 µM): 0.876
relative viability (NCI-H3122; first compound 0.05 µM): 0.974
relative viability (NCI-H3122; first compound 0.1581 µM): 1.02
relative viability (NCI-H3122; first compound 0.5 µM): 1.02
relative viability (LU99A; first compound 0.005 µM): 0.337
relative viability (LU99A; first compound 0.01581 µM): 0.342
relative viability (LU99A; first compound 0.05 µM): 0.34
relative viability (LU99A; first compound 0.1581 µM): 0.27
relative viability (LU99A; first compound 0.5 µM): 0.288
relative viability (LC-2-ad; first compound 0.005 µM): 0.821
relative viability (LC-2-ad; first compound 0.01581 µM): 0.846
relative viability (LC-2-ad; first compound 0.05 µM): 0.856
relative viability (LC-2-ad; first compound 0.1581 µM): 0.881
relative viability (LC-2-ad; first compound 0.5 µM): 0.815
relative viability (NCI-H1755; first compound 0.005 µM): 0.441
relative viability (NCI-H1755; first compound 0.01581 µM): 0.428
relative viability (NCI-H1755; first compound 0.05 µM): 0.444
relative viability (NCI-H1755; first compound 0.1581 µM): 0.457
relative viability (NCI-H1755; first compound 0.5 µM): 0.411
relative viability (ChaGo-K-1; first compound 0.005 µM): 0.847
relative viability (ChaGo-K-1; first compound 0.01581 µM): 0.831
relative viability (ChaGo-K-1; first compound 0.05 µM): 0.901
relative viability (ChaGo-K-1; first compound 0.1581 µM): 0.909
relative viability (ChaGo-K-1; first compound 0.5 µM): 0.845
relative viability (NCI-H2405; first compound 0.005 µM): 0.759
relative viability (NCI-H2405; first compound 0.01581 µM): 0.893
relative viability (NCI-H2405; first compound 0.05 µM): 0.735
relative viability (NCI-H2405; first compound 0.1581 µM): 0.905
relative viability (NCI-H2405; first compound 0.5 µM): 0.518
relative viability (NCI-H1793; first compound 0.005 µM): 0.448
relative viability (NCI-H1793; first compound 0.01581 µM): 0.391
relative viability (NCI-H1793; first compound 0.05 µM): 0.419
relative viability (NCI-H1793; first compound 0.5 µM): 0.328
